# Experimental data published in patent US20160194299A1 (priority 2013, published 2016).
# Where two headings read alike, the source gives them in different places.
# Legend:
# [1] = tested on: Mtb; assay: microbe, parasite or virus in culture; format: cell-based, Mycobacterium tuberculosis; conditions: for MIC: Mycobacterium tuberculosis, read-out: MIC (II)
# [2] = tested on: Mtb; assay: microbe, parasite or virus in culture; format: cell-based, Mycobacterium tuberculosis; conditions: Mycobacterium tuberculosis, read-out: MIC (I)
# [3] = tested on: Mtb; assay: microbe, parasite or virus in culture; format: cell-based, Mycobacterium tuberculosis; conditions: Mycobacterium tuberculosis, read-out: MIC (III)
# [4] = in vitro; conditions: African green monkey
smiles,measurement,setting,value
CCOC(=O)NC(=O)c1ccsc1NC(=O)c1csc(-c2ccncc2)n1 [Compound 2],MIC,[1],1 to 3 µg/mL
COC(=O)NC(=O)c1ccsc1NC(=O)c1ccc(S(=O)(=O)N2CCCC2)cc1 [Compound 5],MIC,[1],< 1 µg/mL
CCOC(=O)NC(=O)c1ccsc1NC(=O)c1nc2cc(OC)ccc2s1 [Compound 6],MIC,[1],< 1 µg/mL
CCNC(=O)Nc1cc(C(=O)Nc2sccc2C(=O)NC(=O)OCC)ccn1 [Compound 7],MIC,[1],< 1 µg/mL
CCOC(=O)NC(=O)c1ccsc1NC(=O)c1ccnc(NC(=O)c2ccc(F)cc2)c1 [Compound 8],MIC,[1],1 to 3 µg/mL
CCOC(=O)NC(=O)c1ccsc1NC(=O)c1ccc2c(c1)NC(=O)CS2 [Compound 9],MIC,[1],1 to 3 µg/mL
C#CCNC(=O)[C@H](CCC1(C)N=N1)NC(=O)CCC(=O)Nc1cc(C(=O)Nc2sccc2C(=O)NC(=O)OCC)ccn1 [Compound 98],MIC,[1],1 to 3 µg/mL
CCOC(=O)NC(=O)c1ccsc1NC(=O)c1ccc(S(C)(=O)=O)c([N+](=O)[O-])c1 [Compound 148],MIC,[1],> 3 µg/mL
CCOC(=O)NC(=O)c1ccsc1NC(=O)c1ccnc(OCC)c1 [Compound 149],MIC,[1],> 3 µg/mL
CCOC(=O)NC(=O)c1ccsc1NC(=O)c1ccc(S(C)(=O)=O)c(N)c1 [Compound 150],MIC,[1],> 3 µg/mL
CCOC(=O)NC(=O)c1ccsc1NC(=O)c1sc2ncnc(O)c2c1C [Compound 151],MIC,[1],> 3 µg/mL
CCOC(=O)NC(=O)c1ccsc1NC(=O)c1cnc(N2CCOCC2)nc1 [Compound 152],MIC,[1],> 3 µg/mL
CCOC(=O)NC(=O)c1ccsc1NC(=O)c1ccnc(NS(=O)(=O)c2ccc(C)cc2)c1 [Compound 153],MIC,[1],> 3 µg/mL
CCOC(=O)NC(=O)c1ccsc1NC(=O)c1ccnc(NC(=O)OCc2ccccc2)c1 [Compound 154],MIC,[1],> 3 µg/mL
CCOC(=O)NC(=O)c1ccsc1NC(=O)C1CCN(c2ccccn2)CC1 [Compound 155],MIC,[1],> 3 µg/mL
CC(=O)Nc1cc(C(=O)Nc2sccc2S(=O)(=O)c2ccccc2)ccn1 [Compound 156],MIC,[1],> 3 µg/mL
CCOC(=O)NC(=O)c1ccsc1NC(=O)c1ccc(C(C)(F)F)nc1 [Compound 157],MIC,[1],> 3 µg/mL
CCOC(=O)NC(=O)c1ccsc1NC(=O)c1cncs1 [Compound 158],MIC,[1],> 3 µg/mL
CCOC(=O)NC(=O)c1ccsc1NC(=O)c1cnc2[nH]ccc2c1 [Compound 159],MIC (II),[1],C (key: A: <1 μg/mL; B: 1-3 μg/mL; C: >3 μg/mL)
CC(C)c1nnc(NC(=O)c2ccsc2NC(=O)c2nc3ccccc3s2)o1 [Compound 160],MIC,[1],> 3 µg/mL
CCOC(=O)NC(=O)c1ccsc1NC(=O)c1nc(C)cs1 [Compound 161],MIC,[1],> 3 µg/mL
CCOC(=O)NC(=O)c1ccsc1NC(=O)c1ccc2[nH]c(S)nc2c1 [Compound 162],MIC (II),[1],C (key: A: <1 μg/mL; B: 1-3 μg/mL; C: >3 μg/mL)
CCOC(=O)NC(=O)c1ccsc1NC(=O)c1ccnc(N)c1 [Compound 163],MIC,[1],> 3 µg/mL
CCOC(=O)NC(=O)c1ccsc1NC(=O)c1cncnc1 [Compound 164],MIC,[1],> 3 µg/mL
CCOC(=O)NC(=O)c1ccsc1NC(=O)c1ccncn1 [Compound 165],MIC,[1],> 3 µg/mL
CCOC(=O)NC(=O)c1ccsc1NC(=O)c1cnccn1 [Compound 166],MIC,[1],> 3 µg/mL
CCOC(=O)NC(=O)c1ccsc1NC(=O)c1ccccn1 [Compound 167],MIC,[1],> 3 µg/mL
CCOC(=O)NC(=O)c1ccsc1NC(=O)c1ccnc(N(C)C)c1 [Compound 168],MIC,[1],> 3 µg/mL
Cc1c(-c2ccccc2)sc(NC(=O)c2nc3ccccc3s2)c1C(=O)N1CCOCC1 [Compound 169],MIC,[1],> 3 µg/mL
CCOC(=O)NC(=O)c1ccsc1NC(=O)c1ccncc1 [Compound 170],MIC,[1],> 3 µg/mL
CCOC(=O)NC(=O)c1ccsc1NC(=O)Cc1ccccc1 [Compound 171],MIC,[1],> 3 µg/mL
CCOC(=O)NC(=O)c1ccsc1NC(=O)c1cccc(F)c1 [Compound 172],MIC,[1],> 3 µg/mL
CCOC(=O)NC(=O)c1ccsc1NC(=O)c1c(F)ccc(OC)c1F [Compound 173],MIC,[1],> 3 µg/mL
CCOC(=O)NC(=O)c1ccsc1NC(=O)c1ccc(OC)cc1 [Compound 174],MIC,[1],> 3 µg/mL
CCOC(=O)NC(=O)c1ccsc1NC(=O)c1c(F)ccc(C)c1F [Compound 175],MIC,[1],> 3 µg/mL
CCOC(=O)NC(=O)c1ccsc1NC(=O)c1c(F)cc(F)cc1F [Compound 176],MIC,[1],> 3 µg/mL
CCOC(=O)NC(=O)c1ccsc1NC(=O)C1CCCCC1 [Compound 177],MIC,[1],> 3 µg/mL
CCOC(=O)NC(=O)c1ccsc1NC(=O)c1ccnc(C(F)(F)F)c1 [Compound 178],MIC,[1],> 3 µg/mL
NC(=O)c1cnn(-c2ccccc2)c1NC(=O)c1nc2ccccc2s1 [Compound 179],MIC,[1],> 3 µg/mL
CC(=O)Nc1cc(C(=O)Nc2sccc2C(=O)N2CCCCC2)ccn1 [Compound 180],MIC,[1],> 3 µg/mL
CC(=O)Nc1cc(C(=O)Nc2sccc2C(=O)N2CCOCC2)ccn1 [Compound 181],MIC,[1],> 3 µg/mL
CC(=O)Nc1cc(C(=O)Nc2sccc2C(=O)Nc2ccc(Cl)cc2)ccn1 [Compound 182],MIC,[1],> 3 µg/mL
CNC(=O)c1ccsc1NC(=O)c1ccnc(NC(C)=O)c1 [Compound 183],MIC,[1],> 3 µg/mL
CC(=O)Nc1cc(C(=O)Nc2sccc2S(C)(=O)=O)ccn1 [Compound 184],MIC,[1],> 3 µg/mL
CCOC(=O)NC(=O)c1c(NC(=O)c2ccnc(NC(C)=O)c2)sc2c1CCCC2 [Compound 185],MIC,[1],> 3 µg/mL
CCOC(=O)c1c(NC(=O)c2ccnc(NC(C)=O)c2)sc2c1CCCC2 [Compound 186],MIC,[1],> 3 µg/mL
CCOC(=O)NC(=O)c1ccccc1NC(=O)c1ccnc(NC(C)=O)c1 [Compound 187],MIC,[1],> 3 µg/mL
CCOC(=O)NC(=O)c1c(NC(=O)c2ccnc(NC(C)=O)c2)sc2c1CCN(CC)C2 [Compound 188],MIC,[1],> 3 µg/mL
CCOC(=O)N(C)C(=O)c1ccsc1NC(=O)c1ccnc(NC(C)=O)c1 [Compound 189],MIC,[1],> 3 µg/mL
CC(=O)Nc1cc(C(=O)Nc2nnc(C(F)(F)F)s2)ccn1 [Compound 190],MIC,[1],> 3 µg/mL
O=C(Nc1sccc1C(=O)NCc1ccccc1)c1nc2ccccc2s1 [Compound 191],MIC,[1],> 3 µg/mL
CCOC(=O)NC(=O)c1ccsc1NC(=O)c1ccnc(NC(=O)C(F)(F)F)c1 [Compound 193],MIC,[1],> 3 µg/mL
CC(=O)Nc1cc(C(=O)Nc2sccc2S(=O)(=O)c2ccccn2)ccn1 [Compound 194],MIC,[1],> 3 µg/mL
CCOC(=O)NC(=O)c1ccsc1NC(=O)c1cc2ccccc2n1C [Compound 195],MIC,[1],> 3 µg/mL
CCOC(=O)NC(=O)c1ccsc1NC(=O)c1cc2cc(Cl)ccc2[nH]1 [Compound 196],MIC,[1],> 3 µg/mL
CCOC(=O)NC(=O)c1ccsc1NC(=O)c1ncccn1 [Compound 197],MIC,[1],> 3 µg/mL
COC(=O)Nc1cc(C(=O)Nc2sccc2C(=O)Nc2ccccn2)ccn1 [Compound 198],MIC,[1],> 3 µg/mL
CCOC(=O)NC(=O)c1ccsc1NC(=O)c1ccc2[nH]c(C)nc2c1 [Compound 199],MIC (II),[1],C (key: A: <1 μg/mL; B: 1-3 μg/mL; C: >3 μg/mL)
COC(=O)NC(=O)c1ccsc1NC(=O)c1ccc(Oc2ccccc2)cc1 [Compound 200],MIC,[1],> 3 µg/mL
CCOC(=O)NC(=O)c1ccsc1NC(=O)c1nn(C)c2ccccc12 [Compound 201],MIC,[1],> 3 µg/mL
CCOC(=O)N(C)C(=O)c1ccsc1NC(=O)c1cn2ccccc2n1 [Compound 377],MIC,[2],> 3 µg/mL
same,MIC,[3],> 25 µg/mL
same,CC50,[4],25 to 50 µg/mL
CCOC(=O)NC(=O)c1ccsc1NC(=O)c1nsc2ccccc12 [Compound 378],MIC,[2],> 3 µg/mL
same,MIC,[3],> 25 µg/mL
same,CC50,[4],25 to 50 µg/mL
O=C(NC(=O)c1ccsc1NC(=O)c1nc2cnccc2s1)OC1CCCC1 [Compound 380],MIC,[2],< 1 µg/mL
same,MIC,[3],> 25 µg/mL
same,CC50,[4],< 25 µg/mL
O=C(NC(=O)c1ccsc1NC(=O)c1cn2ccccc2n1)OC1CCCCC1 [Compound 381],MIC,[2],> 3 µg/mL
same,MIC,[3],> 25 µg/mL
same,CC50,[4],< 25 µg/mL
CN(C)C(=O)NC(=O)c1ccsc1NC(=O)c1cn2ccccc2n1 [Compound 383],MIC,[2],> 3 µg/mL
same,MIC,[3],> 25 µg/mL
same,CC50,[4],< 25 µg/mL
CN(C)C(=O)NC(=O)c1ccsc1NC(=O)c1nc2cnccc2s1 [Compound 384],MIC,[2],> 3 µg/mL
same,MIC,[3],> 25 µg/mL
same,CC50,[4],< 25 µg/mL
O=C(Nc1sccc1C(=O)NC(=O)N1CCOCC1)c1nc2cnccc2s1 [Compound 386],MIC,[2],> 3 µg/mL
same,MIC,[3],> 25 µg/mL
same,CC50,[4],< 25 µg/mL
CCOC(=O)NC(=O)c1cc(F)sc1NC(=O)c1ccc2nccn2n1 [Compound 387],MIC,[2],1 to 3 µg/mL
same,MIC,[3],> 25 µg/mL
same,CC50,[4],< 25 µg/mL
O=C(NC(=O)c1cc(F)sc1NC(=O)c1nc2ccccc2s1)OCCN1CCOCC1 [Compound 388],MIC,[2],< 1 µg/mL
same,MIC,[3],> 25 µg/mL
same,CC50,[4],< 25 µg/mL
CCOC(=O)NC(=O)c1cc(F)sc1NC(=O)c1nc2ncccc2s1 [Compound 389],MIC,[2],1 to 3 µg/mL
same,MIC,[3],> 25 µg/mL
same,CC50,[4],< 25 µg/mL
CC(C)OC(=O)NC(=O)c1ccsc1NC(=O)c1nc2ncccc2s1 [Compound 390],MIC,[2],< 1 µg/mL
same,MIC,[3],> 25 µg/mL
same,CC50,[4],< 25 µg/mL
CC(C)OC(=O)NC(=O)c1cc(F)sc1NC(=O)c1nc2ncccc2s1 [Compound 391],MIC,[2],< 1 µg/mL
same,MIC,[3],> 25 µg/mL
same,CC50,[4],< 25 µg/mL
CCOC(=O)NC(=O)c1ccsc1NC(=O)c1nc2ccc(NC(=O)CN)cc2s1 [Compound 393],MIC,[2],> 3 µg/mL
same,MIC,[3],> 25 µg/mL
same,CC50,[4],< 25 µg/mL
CCOC(=O)NC(=O)c1ccsc1NC(=O)c1cnc2ccsc2c1 [Compound 394],MIC,[2],< 1 µg/mL
same,MIC,[3],> 25 µg/mL
same,CC50,[4],< 25 µg/mL
CC(C)OC(=O)NC(=O)c1ccsc1NC(=O)c1cnc2ccsc2c1 [Compound 395],MIC,[2],< 1 µg/mL
same,MIC,[3],> 25 µg/mL
same,CC50,[4],< 25 µg/mL
CCOC(=O)NC(=O)c1ccsc1NC(=O)c1nc2ccccc2o1 [Compound 396],MIC,[2],< 1 µg/mL
same,MIC,[3],> 25 µg/mL
same,CC50,[4],< 25 µg/mL
CC(C)OC(=O)NC(=O)c1ccsc1NC(=O)c1nc2ccccc2o1 [Compound 397],MIC,[2],< 1 µg/mL
same,MIC,[3],> 25 µg/mL
same,CC50,[4],< 25 µg/mL
CCOC(=O)NC(=O)c1ccsc1NC(=O)c1ccc2nccnc2c1 [Compound 398],MIC,[2],< 1 µg/mL
same,MIC,[3],5 to 25 µg/mL
same,CC50,[4],< 25 µg/mL
CC(C)OC(=O)NC(=O)c1ccsc1NC(=O)c1ccc2nccnc2c1 [Compound 399],MIC,[2],< 1 µg/mL
same,MIC,[3],> 25 µg/mL
same,CC50,[4],< 25 µg/mL
